# Measurements as given in patent US11458132B2, “Quinolin-2(1H)-one inhibitors of Late SV40 Factor” (TRUSTEES OF BOSTON UNIVERSITY, priority 2020, dated 2022).
# Legend:
# FH-B cells [1] = experiment: Cell spreading area / cell compaction by microscopy; type: cell-based, human
# Protocol: Cells were washed as before, treated with Phalloidin-iFluor 488 Reagent (abcam, ab176753) for 1 hour in 1-5% BSA in PBS, followed by Hoechst 33342 (Thermo Fisher Scientific, H3570) for 5 minutes. Mounting medium (Fisher Scientific, P10144) and cover slips were applied onto dried cells. Individually discernible cells were imaged on an Olympus Fluoview 10i. Using ImageJ, the phalloidin channel was thresholded and area and circularity values were measured and integrated into swarmplots using Python's seaborn library.
# For time lapse microscopy, FH-B cells in high μ-dishes were incubated with CellBrite™ Steady Membrane stain (Biotium, 30108-T) for 30-40 minutes in the environmental chamber of a Nikon C2 Si microscope at 37° C. and 5% CO2. Treatments were added to the cells through a syringe to reach final concentrations of 4 μM FQI1 or 0.01% DMSO. Immediately thereafter, a time-lapse series was acquired by imaging every 30 seconds for 30 minutes at 20× magnification.
# LSF = target: T1, LSF (Homo sapiens, UniProt Q12800); experiment: Cellular thermal shift assay (CETSA) in Huh7 cells; type: binding; settings: 50 μM, three hours, vs DMSO
# T1 construct: Representative immunoblots of soluble LSF after treatment with FQI2-34 versus DMSO; endogenous in cells; host or cells: Huh7
# T1 sequence (Q12800 1-502): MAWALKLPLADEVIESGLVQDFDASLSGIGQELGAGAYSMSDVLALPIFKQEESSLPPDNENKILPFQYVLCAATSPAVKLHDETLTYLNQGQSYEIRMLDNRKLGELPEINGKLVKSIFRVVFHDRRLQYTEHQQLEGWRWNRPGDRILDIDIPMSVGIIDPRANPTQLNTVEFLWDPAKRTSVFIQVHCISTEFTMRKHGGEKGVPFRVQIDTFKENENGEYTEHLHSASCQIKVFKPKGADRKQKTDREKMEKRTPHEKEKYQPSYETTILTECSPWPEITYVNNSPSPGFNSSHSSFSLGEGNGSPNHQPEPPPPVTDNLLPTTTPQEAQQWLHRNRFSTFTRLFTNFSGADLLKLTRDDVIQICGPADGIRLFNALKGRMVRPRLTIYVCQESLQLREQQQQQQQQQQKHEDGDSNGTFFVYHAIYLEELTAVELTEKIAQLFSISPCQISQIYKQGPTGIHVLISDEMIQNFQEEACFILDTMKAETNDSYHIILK
# Protocol: Cellular Thermal Shift Assay (CETSA): Huh7 cells obtained from JCRB (Japanese Cancer Resources Bank) were cultured in DMEM medium (Corning) supplemented with 10% fetal bovine serum (Gibco). The cells were cultured at 37° C. in 5% CO2. Approximately 9×10^5 Huh7 cells were plated per 10 cm plate. After 20 hours, cells were treated for three hours with fresh media containing 50 μM FQI1, 50 μM FQI2-34, or 0.1% DMSO (FQI1 control) or 0.5% DMSO (FQI2-34 control). Subsequently, the cells were washed with PBS (137 mM NaCl, 2.7 mM KCl, 10 mM Na2HPO4, 2 mM KH2PO4, pH 7.2) supplemented with their respective treatments (FQI1, FQI2-34, or vehicle) and scraped from the dish in the presence of 5 mL of PBS supplemented with 1 mM Pefabloc (Sigma-Aldrich, 76307) plus the respective treatment. Pelleted cells were resuspended in 500 μL of PBS buffer with 1 mM Pefabloc plus the respective treatment. Aliquots of 50 μL of cell suspension from each treatment sample were incubated separately at the indicated temperatures for 3 minutes in a thermal cycler (Bio-rad, T100 Thermocyler), then cooled at the room temperature for 3 minutes. Lysates were prepared by four rounds of snap freezing and thawing. […] Films were scanned and band intensities were quantified by densitometry with Image J; a non-parametric t-test was used to determine statistical significance.
# FH-B cells [2] = experiment: MTS cell proliferation assay; type: cell-based, human; settings: for GI50: Homo sapiens, FH-B cells, MTS assay, 72 hour treatment
# Protocol: MTS Cell Proliferation Assay: Three thousand FH-B cells were seeded per well in a 96-well plate and incubated at 37° C. for 20 hours. Compound dilutions were prepared in DMSO and added to the cell culture media to a final DMSO concentration of 1% for a 72 hour treatment. Cell growth inhibition was assessed by measuring absorbance at 490 nm using the Promega CellTiter 96® AQueous One Solution Cell Proliferation Assay (Promega, G358C). Percent growth inhibition was determined by the ratio of the absorbance of treatment wells to the absorbance of control wells. A non-linear regression plot of the percentage of growth inhibition versus compound concentration was prepared using GraphPad Prism software, using settings for the curves of variable slope and four parameters. The relative GI50 value was determined from the curve as the concentration of drug that provokes a response halfway between the top and bottom plateaus of the curve.
SMILES,"effect of FQI1 on cell spreading area after taxol pretreatment (FH-B cells [1]; 1 μM taxol 30 minutes, then 4 μM FQI1)","reduction in cell spreading area (FH-B cells [1]; 4 μM FQI1, 30-60 minutes, vs vehicle)","reduction in cell spreading area (FH-B cells [1]; Y-27632 pretreatment 30 minutes, then 4 μM FQI1 30 minutes)","decrease in median cell spreading area (FH-B cells [1]; vehicle pretreatment 30 minutes, then 4 μM FQI1 10 or 30 minutes)","reduction in cell spreading area (FH-B cells [1]; vehicle pretreatment (control group of Y-27632 experiment), 4 μM FQI1 30 minutes)",stability of LSF to thermal denaturation (LSF),GI50 (FH-B cells [2]),"decrease in cell spreading (FH-B cells [1]; 200 nM FQI2-34, 30 minutes, vs vehicle)",fold lower concentration than the effective concentrations for FQI1 (cell compaction) (FH-B cells [1]; 200 nM FQI2-34 vs 4 μM FQI1),fold higher efficacy than FQI1 in inhibiting proliferation of FH-B cells (FH-B cells [2])
"CCOc1ccccc1C1CC(=O)Nc2cc3c(cc21)OCO3 (stereo not drawn) [FQI1, 8-(2-ethoxyphenyl)-7,8-dihydro-[1,3]dioxolo[4,5-g]quinolin-6(5H)-one]",no detectable effect,1.7 fold,1.2 fold,1.5 fold,1.6 fold,enhanced the stability of LSF to thermal denaturation,2300 nM,,,
"CCOc1cc(N(C)C)ccc1-c1cc(=O)[nH]c2cc3c(cc12)OCO3 [FQI2-34, 8-(4-(dimethylamino)-2-ethoxyphenyl)-[1,3]dioxolo[4,5-g]quinolin-6(5H)-one]",,,,,,enhanced the stability of LSF to thermal denaturation,140 nM,2.1 fold,20 fold,17 fold
